This note sets out measurements from the METLIN SMRT retention time set (Domingo-Almenara et al. 2019).

The data set in a line: gradient 5% acetonitrile 3 min, to 50% in 2 min, to 85% in 15 min, held 3 min, 100 µL/min. The following applies: column: Zorbax Extend-C18 2.1 x 50 mm; eluents: water / acetonitrile, 0.1% formic acid. A digest of the protocol: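 Pure standards were run in mixtures of ~100 molecules by HPLC coupled to a quadrupole time-of-flight mass spectrometer. The column was a Zorbax Extend-C18 (2.1 × 50 mm, 1.8 μm) at 100 μL/min, with water and acetonitrile each containing 0.1% formic acid, in positive and negative ionization mode. Dead and dwell volumes were 40 μL and 900 μL. Retention time was taken from computationally picked adduct peaks, each manually inspected, with data collected over 3 months.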
Consider `CCc1onc(C)c1C1CCCN1C(=O)Nc1cccc(OC)c1` (centres undefined), for which the RP-LC retention time came to 791 s.

As to `Cc1nc(-c2noc(-c3ccncc3)n2)cn1CC(=O)NCc1ccc(Cl)cc1`, the RP-LC retention time came out at 683 s.

As to `CCN(CC)S(=O)(=O)c1ccc2c(c1)CC(C(=O)N1CCOCC1)N2C(C)=O` (centres undefined), the RP-LC retention time is 663 s.

In the case of `O=S(=O)(Cc1c(F)cccc1Cl)N1CCc2nc(-c3ccc(F)cc3)ncc2C1`, the RP-LC retention time turned out to be 1130 s.

With `CCN1C(=O)C2CCC(=O)N2c2ccc(C(=O)NCc3ccco3)cc21` (centres undefined), the RP-LC retention time was found to be 674 s.

In the case of `Cc1noc([C@H]2CCN(C3CCSCC3)C[C@H]2NC(=O)C2CC2)n1`, the RP-LC retention time was 576 s.

`CC(C)(C)C(=O)Nc1nnc(SCc2nnc(-c3ccc4c(c3)OCO4)o2)s1` gave an RP-LC retention time of 843 s.

In turn, `Cc1cc(OCC(=O)N2CCC[C@H]2C(=O)O)c2c3c(c(=O)oc2c1)CCCC3` showed an RP-LC retention time of 754 s.

The compound `CCOc1ccccc1NC(=O)Nc1ccc2c(c1)CCN2S(=O)(=O)c1ccccc1` came in with an RP-LC retention time of 1040 s.

For `COc1ccc(-c2cc(N3CCC(NC(=O)c4ccc(OC)c(OC)c4)C3)n[nH]2)cc1` (centres undefined), the RP-LC retention time was 655 s.

For `CCN(CC)CCNC(=O)CN1C(=O)C2CCCCN2c2ccc(S(=O)(=O)N3CCCC3)cc21` (centres undefined), the RP-LC retention time came out at 633 s.

With `O=C(NCCc1c[nH]c2ccc(Cl)cc12)c1cncc(Br)c1`, the RP-LC retention time is 851 s.

`CCOCCCNC(=O)N1c2ccccc2CC1c1nc(C(C)C)no1` (centres undefined) returned an RP-LC retention time of 901 s.

In turn, `CCN(C(=O)C1CCC(C)CC1)c1nc(-c2ccc(C)cc2)cs1` (centres undefined) came in with an RP-LC retention time of 767 s.

Compound `O=C(Cn1nc(N2CCSCC2)c2ccccc2c1=O)Nc1ccc(Br)cc1` registered an RP-LC retention time of 1000 s.

In the case of `COc1ccccc1NC(=O)C1CC(=O)N(c2ccc3oc(C)nc3c2)C1` (centres undefined), the RP-LC retention time turned out to be 726 s.

As for `COc1ccccc1CNC(=O)CN1C(=O)CSc2cccn2-c2ccccc21`, the RP-LC retention time came out at 613 s.

For `COCCN1C(=O)CCc2cc(NS(=O)(=O)c3cccs3)ccc21`, the RP-LC retention time turned out to be 706 s.

`CCCCOc1ccc(C(=O)N2CCOC(c3ccccc3)C2)cc1` (centres undefined) had an RP-LC retention time of 1060 s.

As to `CC1Oc2ccccc2OC1C(=O)NCc1ccsc1` (centres undefined), the RP-LC retention time is 832 s.

Take `O=C(Cn1cnc2nc(N3CCCC(C(=O)NC4CC4)C3)sc2c1=O)Nc1cc(F)cc(F)c1` (centres undefined): the RP-LC retention time stood at 717 s.

Compound `CN(C)C[C@@H]1CN(c2ncccn2)C[C@H]1NC(=O)NCCc1ccccc1` registered an RP-LC retention time of 600 s.

For the compound `COc1cc(C2NCCc3c2[nH]c2ccccc32)ccc1OC(C)C` (centres undefined), the RP-LC retention time is 676 s.

On to `Clc1cccc(-c2nc(Cn3ccnc3)no2)c1`, for which the RP-LC retention time stood at 629 s.

`COc1ccc(CNc2nc3ccncc3n(C(C)C)c2=O)c(OC)c1` had an RP-LC retention time of 681 s.

As to `O=C(Cn1ncc2c(N3CCN(c4ccccn4)CC3)ncnc21)Nc1ccccc1Br`, the RP-LC retention time came to 608 s.

The compound `O=C(NCc1ccco1)C1CCN(c2ccc3nnc(-c4ccccc4F)n3n2)CC1` yielded an RP-LC retention time of 708 s.

In turn, `CCCNC(=O)c1nc2cccnc2n(C)c1=O` displayed an RP-LC retention time of 647 s.

The compound `O=C(Cc1cccs1)NC1CCc2nnc(C3CC3)n2CC1` (centres undefined) came in with an RP-LC retention time of 598 s.

`O=C(CSc1ccc(N2CCCC(C(=O)NC3CC3)C2)nn1)NCc1cccc(C(F)(F)F)c1` (centres undefined) gave an RP-LC retention time of 678 s.

Regarding `O=C(Nc1cc(Cl)ccc1F)c1cnc(-c2ccccc2)nc1-c1ccncc1`, the RP-LC retention time turned out to be 976 s.

Take `CC(=O)N1CCc2cc(N3CC(C(=O)Nc4ccc(Br)cc4)CC3=O)ccc21` (centres undefined): the RP-LC retention time is 770 s.

The compound `O=C(NCc1ccco1)c1ccc(NS(=O)(=O)c2cccc(C(F)(F)F)c2)cc1` showed an RP-LC retention time of 818 s.

`O=C(Cc1ccccc1Cl)NCC(O)c1ccc(C(F)(F)F)cc1` (centres undefined) yielded an RP-LC retention time of 806 s.

In turn, `CCOc1ccccc1NC(=O)Cn1nc2n(c1=O)CCCC2` returned an RP-LC retention time of 655 s.

`Cc1ccn2cc(-c3ccc(NC(=O)c4ccccc4[N+](=O)[O-])cc3)nc2n1`: the RP-LC retention time worked out at 622 s.

As to `Cc1ccc(CN2CCC(CNS(=O)(=O)c3ccc4c(c3)CCCC(=O)N4)C2)cc1` (centres undefined), the RP-LC retention time is 625 s.

With `CCc1cccc(N2C(=O)CN(S(=O)(=O)CC)CC2(C)C(=O)NCc2ccc(F)cc2)c1` (centres undefined), the RP-LC retention time was found to be 945 s.

In the case of `COc1ccc(NC(=O)NCC23CCC=C2N(CC2CC2)C(=O)CC3)cc1` (centres undefined), the RP-LC retention time came to 813 s.

Consider `CCn1cnc(S(=O)(=O)N2CCC(C(=O)N3CCN(c4cccc(C(F)(F)F)c4)CC3)CC2)c1`, for which the RP-LC retention time is 868 s.

With `CCC(=O)N1CCc2c(sc3ncnc(N4CCc5ccccc54)c23)C1`, the RP-LC retention time is 734 s.

The compound `CCn1ccc(C(=O)N2CCCC2c2ccc(F)cc2)n1` (centres undefined) yielded an RP-LC retention time of 816 s.

In the case of `Cc1ccc(F)cc1S(=O)(=O)N1CCC2(CCN(c3cccnc3)C2)C1` (centres undefined), the RP-LC retention time came to 685 s.

Take `Cc1ccc(C)c(NC(=O)C(=O)NCC(c2ccc3c(c2)OCO3)N2CCN(C)CC2)c1` (centres undefined): the RP-LC retention time is 702 s.

As for `Cc1ccccc1CNC(=O)C1CCN(Cc2cn(C)c3ccc(Cl)cc23)CC1`, the RP-LC retention time came out at 740 s.

For the compound `CCC(=O)Nc1ccc(-n2cnc(C(=O)NCc3ccc(C)c(C)c3)c2)nc1`, the RP-LC retention time was found to be 791 s.

Turning to `O=C(Cn1c(=O)c(CCC(=O)NC2CC2)nc2ccccc21)NCc1ccccc1Br`, the RP-LC retention time amounted to 736 s.

Compound `CC1=C(c2ccc(C)c(C)c2)S(=O)(=O)N=C1N1CCCN(C(=O)c2ccccn2)CC1` displayed an RP-LC retention time of 771 s.

Consider `COC(=O)C1=CN(c2ccccc2OC)c2ccccc2S1(=O)=O`, for which the RP-LC retention time amounted to 824 s.

The compound `O=C(NC1CCCCC1)c1cccn1Cc1noc(-c2ccccc2)n1` had an RP-LC retention time of 1070 s.

Compound `COc1ccc(CNC(=O)CN2C(=O)CSc3cccn3-c3ccccc32)c(OC)c1` had an RP-LC retention time of 868 s.

In the case of `O=C(N[C@H]1C[C@@H]2C[C@H]1CN2C(=O)c1ccccc1Cl)c1ccccc1`, the RP-LC retention time came to 757 s.

As for `CC(C)(C)c1ccc(OCC(=O)N(Cc2ccc(Br)o2)C2CCS(=O)(=O)C2)cc1` (centres undefined), the RP-LC retention time came out at 1060 s.

The compound `Cc1noc(C2CN(C(=O)Nc3ccccc3C)CC23CCOCC3)n1` (centres undefined) registered an RP-LC retention time of 700 s.

As for `Cc1nc(-c2ccccc2)nc2c1CCC(=O)N2Cc1ccco1`, the RP-LC retention time was determined as 1000 s.

With `c1csc(-c2[nH]ncc2CN2CCN(c3cnn4cnnc4c3)CC2)c1`, the RP-LC retention time is 835 s.

`CC(C)n1c(N2CCCN(C(=O)c3ccc(F)c(F)c3)CC2)cc(=O)n(C(C)C)c1=O`: the RP-LC retention time came to 859 s.

Consider `CCn1c(=O)c(=O)n(CC(=O)NCCN2CCCC2)c2cccnc21`, for which the RP-LC retention time is 559 s.

Regarding `Cc1cccc(NC(=O)COc2ccc(-c3cnc4ccccc4n3)cc2)n1`, the RP-LC retention time was 911 s.

`Cc1cccc2nnc(N3CCCN(C(=O)c4ccccc4Cl)CC3)n12` had an RP-LC retention time of 600 s.

`CCCNC(=O)N1CCC(N2CCN(Cc3ccccc3)C(=O)C2=O)CC1` registered an RP-LC retention time of 653 s.

In turn, `CCOC(=O)C1=C(CN2CCc3ccccc3C2)NC(=O)NC1c1cccc(OC)c1OC` (centres undefined) gave an RP-LC retention time of 660 s.

`CCN1CCC2(CC1)OC(=O)C(C)=C2C(=O)NCc1ccc(C)cc1`: the RP-LC retention time amounted to 558 s.

The compound `Cc1nn(-c2ccc(N3CCCC3)nn2)c(C)c1CCC(=O)N1CCN(c2ncccn2)CC1` came in with an RP-LC retention time of 605 s.

Take `O=S(=O)(c1ccc(-c2nnc(C3CCC3)o2)o1)N1CCN(c2ccccc2)CC1`: the RP-LC retention time is 1090 s.

In turn, `CCOc1ccccc1NC(=O)N1CCC2(CC1)NC(=O)c1cc(C)ccc1N2C` gave an RP-LC retention time of 872 s.

`COC1CCN(CC2CCCCCN2C(=O)c2ccoc2)CC1` (centres undefined) gave an RP-LC retention time of 596 s.

In the case of `O=C(CN1CC=C(c2cnn(-c3ccccc3)c2)CC1)N1CCCc2ccccc21`, the RP-LC retention time was found to be 726 s.

Compound `Cc1ccc(NC(=O)Cn2nc3nc(N4CCSCC4)ccn3c2=O)cc1C` displayed an RP-LC retention time of 754 s.

Take `CCc1nc(-c2ccc(S(=O)(=O)N3CCC(C(=O)N4CCc5ccccc54)CC3)cc2)no1`: the RP-LC retention time was determined as 802 s.

`CC(=O)N(C1CCOCC1)C1CCN(C(=O)Nc2cc(F)c(F)c(F)c2)CC1` showed an RP-LC retention time of 747 s.

With `O=C(Cc1cc(-c2ccc3c(c2)OCO3)on1)NCc1cccnc1`, the RP-LC retention time came out at 573 s.

As to `COc1cc(-c2nnc(C)o2)ccc1C`, the RP-LC retention time worked out at 828 s.

In turn, `Cc1ccc(-c2nc3nc(C)cc(C)n3c2Nc2cccc(C(F)(F)F)c2)cc1` displayed an RP-LC retention time of 817 s.

`CC(=O)c1cccc(NC(=O)NC(c2ccccc2)c2nnc(-c3ccccc3)o2)c1` (centres undefined) showed an RP-LC retention time of 892 s.

Regarding `COc1ccc2c(c1)C1(CCN(C(=O)NCCc3ccccc3)C1)C(=O)N2` (centres undefined), the RP-LC retention time is 750 s.

Turning to `CCCCOC(=O)c1[nH]c2c(c1C)C(=O)CC(c1cc(OC)c(OC)c(OC)c1)C2` (centres undefined), the RP-LC retention time was found to be 1020 s.

In the case of `O=C(CCc1nnn2c1CN(C(=O)NC1CCCC1)CC2)N1CCOCC1`, the RP-LC retention time came to 615 s.

`O=C(NCc1ccccc1)N1CCN(c2ncccc2-c2nnc(C3CC3)o2)CC1` yielded an RP-LC retention time of 738 s.
